According to patent publication US5191079A, “Quinolinecarboxylic acid derivatives” (priority 1990, dated 1993):
≈ marks a conversion by molar mass, not a printed value. Where a name gives a salt, the structure may show the parent alone. Read-outs that look alike come from different tables or passages of the source.

What was measured:
Assay type in all cases: cell-based
[1] = test system: Streptococcus pyogenes Sv; assay: MIC, Experiment 1; details: S. pyogenes Sv, Gram +, agar with 5% defibrinated horse blood, read-out: Min. inhib. concentr. (MIC)
Summary of the method: (§1)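 Minimum inhibitory concentrations come from the Japan Society of Chemotherapy procedure. For streptococci, plates were heart infusion agar with 5% defibrinated horse blood after brain heart infusion broth preculture. Non-streptococcal strains were grown in sensitivity test broth and plated on sensitivity test agar.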

[2] = test system: Proteus mirabilis IFO 3849; assay: MIC, Experiment 1; details: IFO3849, P. mirabilis IFO 3849, Gram -, read-out: Min. inhib. concentr. (MIC)
Summary of the method: (§2)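 MIC was determined by the Japan Society of Chemotherapy standard method. For S. pneumoniae, preculture was in brain heart infusion broth and MIC was read on heart infusion agar with 5% defibrinated horse blood. Other strains were precultured in sensitivity test broth and tested on sensitivity test agar.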

[3] = test system: Staphylococcus aureus IID 803; assay: MIC, Experiment 1; details: IID803, S. aureus IID 803, Gram +, read-out: Min. inhib. concentr. (MIC)
Summary of the method: (§3)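 Compounds were dissolved in DMSO or sterile water at 5000 μg/ml, then diluted with sterile water to a 1000 μg/ml standard solution. Testing followed the Japan Society of Chemotherapy method. S. aureus and B. cereus were run on sensitivity test agar; pneumococci were run on horse-blood heart infusion agar.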

[4] = test system: Bacillus subtilis ATCC 6633; assay: MIC, Experiment 1; details: ATCC6633, B. subtilis ATCC 6633, Gram +, read-out: Min. inhib. concentr. (MIC)
Summary of the method: as §1

[5] = test system: Klebsiella pneumoniae PCI-602; assay: MIC, Experiment 1; details: PCI602, K. pneumoniae PCI-602, Gram -, read-out: Min. inhib. concentr. (MIC)
Summary of the method: as §2

[6] = test system: Streptococcus pyogenes Cook; assay: MIC, Experiment 1; details: S. pyogenes Cook, Gram +, agar with 5% defibrinated horse blood, read-out: Min. inhib. concentr. (MIC)
Summary of the method: as §1

[7] = test system: Streptococcus pneumoniae IID 552; assay: MIC, Experiment 1; details: IID552, S. pneumoniae IID 552, Gram +, agar with 5% defibrinated horse blood, read-out: Min. inhib. concentr. (MIC)
Summary of the method: as §3

[8] = test system: Staphylococcus aureus FDA 209P JC-1; assay: MIC, Experiment 1; details: FDA209P, S. aureus FDA 209P JC-1, Gram +, read-out: Min. inhib. concentr. (MIC)
Summary of the method: as §3

[9] = test system: Escherichia coli NIHJ JC-2; assay: MIC, Experiment 1; details: NIHJJC2, E. coli NIHJ JC-2, Gram -, read-out: Min. inhib. concentr. (MIC)
Summary of the method: as §2

[10] = test system: Staphylococcus aureus Cowan I (IID 975); assay: MIC, Experiment 1; details: IID975, S. aureus Cowan I (IID 975), Gram +, read-out: Min. inhib. concentr. (MIC)
Summary of the method: as §3

[11] = test system: Acinetobacter calcoaceticus Ac 54; assay: MIC, Experiment 1; details: AC54, A. calcoaceticus Ac 54, Gram -, read-out: Min. inhib. concentr. (MIC)
Summary of the method: as §2

Bacillus cereus IAM 1029 = assay: MIC, Experiment 1; details: IAM1029, B. cereus IAM 1029, Gram +, read-out: Min. inhib. concentr. (MIC)
Summary of the method: as §3

[12] = test system: Pseudomonas aeruginosa NCTC 10490; assay: MIC, Experiment 1; details: NCTC10490, P. aeruginosa NCTC 10490, Gram -, read-out: Min. inhib. concentr. (MIC)
Summary of the method: as §2

[13] = test system: Streptococcus pneumoniae IID 554; assay: MIC, Experiment 1; details: IID554, S. pneumoniae IID 554, Gram +, agar with 5% defibrinated horse blood, read-out: Min. inhib. concentr. (MIC)
Summary of the method: as §3

Enterobacter cloacae 963 = assay: MIC, Experiment 1; details: E. cloacae 963, Gram -, read-out: Min. inhib. concentr. (MIC)
Summary of the method: as §2

[14] = test system: Staphylococcus aureus Terajima (IID 670); assay: MIC, Experiment 1; details: IID670, S. aureus Terajima (IID 670), Gram +, read-out: Min. inhib. concentr. (MIC)
Summary of the method: as §3

[15] = test system: Staphylococcus aureus ATCC 9144; assay: MIC, Experiment 1; details: ATCC9144, S. aureus ATCC 9144, Gram +, read-out: Min. inhib. concentr. (MIC)
Summary of the method: as §3

[16] = test system: Streptococcus pyogenes Su; assay: MIC, Experiment 1; details: S. pyogenes Su, Gram +, agar with 5% defibrinated horse blood, read-out: Min. inhib. concentr. (MIC)
Summary of the method: as §1

[17] = test system: Micrococcus luteus ATCC 9341; assay: MIC, Experiment 1; details: ATCC9341, M. luteus ATCC 9341, Gram +, read-out: Min. inhib. concentr. (MIC)
Summary of the method: as §2

[18] = test system: Staphylococcus aureus FDA 243; assay: MIC, Experiment 1; details: FDA243, S. aureus FDA 243, Gram +, read-out: Min. inhib. concentr. (MIC)
Summary of the method: as §3

[19] = test system: Staphylococcus aureus MS-353; assay: MIC, Experiment 1; details: MS353, S. aureus MS-353, Gram +, read-out: Min. inhib. concentr. (MIC)
Summary of the method: as §3

[20] = test system: clinically isolated Staphylococcus aureus; assay: In vitro antibacterial activity against clinical isolates, Experiment 2
Summary of the method: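 MIC was determined on sensitivity test agar after preculture of each clinical isolate in sensitivity test broth. Test compounds were prepared as 1000 μg/ml standard (stock) solutions in sterilized distilled water. Isolates were collected between Nov. 1988 and Jun. 1989.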

[21] = 25 clinical strains S. aureus incl. 16 methicillin resistant
[22] = 25 clinical strains S. aureus incl. 16 methicillin resistant, 50% of strains, read-out: MIC50
[23] = 25 clinical strains S. aureus incl. 16 methicillin resistant, 90% of strains, read-out: MIC90

| SMILES | MIC [1] | MIC [2] | MIC [3] | MIC [4] | MIC [5] | MIC [6] | MIC [7] | MIC [8] | MIC [9] | MIC [10] | MIC [11] | MIC (Bacillus cereus IAM 1029) | MIC [12] | MIC [13] | MIC (Enterobacter cloacae 963) | MIC [14] | MIC [15] | MIC [16] | MIC [17] | MIC [18] | other results |
| --- | --- | --- | --- | --- | --- | --- | --- | --- | --- | --- | --- | --- | --- | --- | --- | --- | --- | --- | --- | --- | --- |
| CN1Cc2csc3c(C(=O)O)c(=O)c4cc(F)c(N5CCN6CCOC[C@H]6C5)c1c4n23 [Compound (F), 9,1-(Methylimino)methano-7-fluoro-8-[(6R)-1,8-diaza-4-oxabicyclo[4.4.0]deca-8-yl]-5-oxo-5H-thiazolo[3,2-a]quinoline-4-carboxylic acid] | 0.05 µg/mL (≈ 0.112 µM) | 0.78 µg/mL (≈ 1.75 µM) | 0.013 µg/mL (≈ 0.0292 µM) | 0.013 µg/mL (≈ 0.0292 µM) | 0.013 µg/mL (≈ 0.0292 µM) | 0.05 µg/mL (≈ 0.112 µM) | 0.05 µg/mL (≈ 0.112 µM) | 0.025 µg/mL (≈ 0.0562 µM) | 0.39 µg/mL (≈ 0.877 µM) | 0.025 µg/mL (≈ 0.0562 µM) | 0.013 µg/mL (≈ 0.0292 µM) | 0.025 µg/mL (≈ 0.0562 µM) | 0.78 µg/mL (≈ 1.75 µM) | 0.05 µg/mL (≈ 0.112 µM) | 0.78 µg/mL (≈ 1.75 µM) | 0.05 µg/mL (≈ 0.112 µM) | 0.025 µg/mL (≈ 0.0562 µM) | 0.05 µg/mL (≈ 0.112 µM) | 0.2 µg/mL (≈ 0.45 µM) | 0.013 µg/mL (≈ 0.0292 µM) | MIC [19]: 0.025 µg/mL (≈ 0.0562 µM); MIC50 [20]: 0.025 µg/mL (≈ 0.0562 µM); MIC90 [20]: 0.78 µg/mL (≈ 1.75 µM); MIC [20, 21]: 0.013 to 0.78 µg/mL (≈ 0.0292 to 1.75 µM) |
| CN1Cc2csc3c(C(=O)O)c(=O)c4cc(F)c(N5CCN(C)C(CO)C5)c1c4n23 (stereo not drawn) [Compound (I), 9,1-(Methylimino)methano-7-fluoro-8-(3-hydroxymethyl-4-methyl-1-piperazinyl)-5-oxo-5H-thiazolo-[3,2-a]quinoline-4-carboxylic acid hydrochloride] | 0.1 µg/mL | 0.78 µg/mL | 0.2 µg/mL | 0.1 µg/mL | 0.025 µg/mL | 0.05 µg/mL | 0.1 µg/mL | 0.2 µg/mL | 0.2 µg/mL | 0.2 µg/mL | 0.1 µg/mL | 0.2 µg/mL | 0.78 µg/mL | 0.05 µg/mL | 0.2 µg/mL | 0.2 µg/mL | 0.1 µg/mL | 0.05 µg/mL | 0.39 µg/mL | 0.1 µg/mL | MIC [19]: 0.39 µg/mL; MIC90 [20]: 6.25 µg/mL; MIC [20, 21]: 0.1 to 12.5 µg/mL; MIC50 [20, 22]: 0.2 µg/mL |
| CN1Cc2csc3c(C(=O)O)c(=O)c4cc(F)c(N5CCOC(CCl)C5)c1c4n23 (stereo not drawn) [Compound (D), 9,1-(Methylimino)methano-7-fluoro-8-(2-chloromethylmorpholino)-5-oxo-5H-thiazolo[3,2-a]quinoline-4-carboxylic acid] | 0.05 µg/mL (≈ 0.114 µM) | 0.39 µg/mL (≈ 0.891 µM) | ≤ 0.006 µg/mL | ≤ 0.006 µg/mL | 0.025 µg/mL (≈ 0.0571 µM) | 0.05 µg/mL (≈ 0.114 µM) | 0.05 µg/mL (≈ 0.114 µM) | 0.013 µg/mL (≈ 0.0297 µM) | 0.2 µg/mL (≈ 0.457 µM) | 0.013 µg/mL (≈ 0.0297 µM) | ≤ 0.006 µg/mL | 0.025 µg/mL (≈ 0.0571 µM) | 0.39 µg/mL (≈ 0.891 µM) | 0.05 µg/mL (≈ 0.114 µM) | 0.39 µg/mL (≈ 0.891 µM) | 0.025 µg/mL (≈ 0.0571 µM) | 0.013 µg/mL (≈ 0.0297 µM) | 0.025 µg/mL (≈ 0.0571 µM) | 0.05 µg/mL (≈ 0.114 µM) | ≤ 0.006 µg/mL | MIC [19]: 0.013 µg/mL (≈ 0.0297 µM); MIC [20, 21]: 0.006 to 0.2 µg/mL (≈ 0.0137 to 0.457 µM); MIC50 [20, 22]: 0.013 µg/mL (≈ 0.0297 µM); MIC90 [20, 23]: 0.2 µg/mL (≈ 0.457 µM) |
| COC[C@H]1CN(c2c(F)cc3c(=O)c(C(=O)O)c4scc5n4c3c2N(C)C5)CCO1 [Compound (P), 9,1-(Methylimino)methano-7-fluoro-8-[(2R)-2-methoxymethylmorpholino)-5-oxo-5H-thiazolo[3,2-a]quinoline-4-carboxylic acid] | 0.1 µg/mL (≈ 0.231 µM) | 0.78 µg/mL (≈ 1.8 µM) | 0.025 µg/mL (≈ 0.0577 µM) | ≤ 0.006 µg/mL | 0.025 µg/mL (≈ 0.0577 µM) | 0.05 µg/mL (≈ 0.115 µM) | 0.05 µg/mL (≈ 0.115 µM) | 0.05 µg/mL (≈ 0.115 µM) | 0.2 µg/mL (≈ 0.461 µM) | 0.006 µg/mL (≈ 0.0138 µM) | 0.013 µg/mL (≈ 0.03 µM) | 0.025 µg/mL (≈ 0.0577 µM) | 1.56 µg/mL (≈ 3.6 µM) | 0.1 µg/mL (≈ 0.231 µM) | 1.56 µg/mL (≈ 3.6 µM) | 0.05 µg/mL (≈ 0.115 µM) | 0.013 µg/mL (≈ 0.03 µM) | 0.05 µg/mL (≈ 0.115 µM) | 0.2 µg/mL (≈ 0.461 µM) | ≤ 0.006 µg/mL | MIC [19]: 0.025 µg/mL (≈ 0.0577 µM); MIC90 [20]: 0.78 µg/mL (≈ 1.8 µM); MIC [20, 21]: 0.006 to 0.78 µg/mL (≈ 0.0138 to 1.8 µM); MIC50 [20, 22]: 0.013 µg/mL (≈ 0.03 µM) |
| CN1CCN(c2c(F)cc3c(=O)c(C(=O)O)c4scc5n4c3c2OC5)CC1 [Compound (Y), 9,1-Epoxymethano-7-fluoro-8-(4-methyl-1-piperazinyl)-5-oxo-5H-thiazolo[3,2-a]quinoline-4-carboxylic acid hydrochloride, reference compound] | 0.2 µg/mL | 0.2 µg/mL | 0.2 µg/mL | 0.1 µg/mL | 0.025 µg/mL | 0.1 µg/mL | 0.1 µg/mL | 0.2 µg/mL | 0.1 µg/mL | 0.1 µg/mL | 0.2 µg/mL | 0.39 µg/mL | 0.78 µg/mL | 0.2 µg/mL | 0.1 µg/mL | 0.1 µg/mL | 0.05 µg/mL | 0.1 µg/mL | 1.56 µg/mL | 0.05 µg/mL | MIC [19]: 0.1 µg/mL; MIC [20, 21]: 0.05 to 12.5 µg/mL; MIC50 [20, 22]: 0.2 µg/mL; MIC90 [20, 23]: 12.5 µg/mL |
